Results from patent publication US6355799B1, “Substituted benzene compounds, process for their preparation, and herbicidal and defoliant compositions containing them” (ISK Americas Incorporated, priority 1997, dated 2002).

Columns and labels:
Assay type in all cases: in vivo
[1] = system: redroot pigweed (Amaranthus retroflexus, AMARE); assay: Pre-emerge test, greenhouse herbicide activity screening; details: for Pre-emerge herbicidal activity, phytotoxicity rating AMARE: rating scale 0-100, 14 days after application; for phytotoxicity rating AMARE: pre-emerge, 14 days after application, rating scale 0-100
How it was run: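 Compounds in acetone were track-sprayed at 15-1000 g ai/ha (187 l/ha) on sandy loam pots: pre-emerge one day after seeding, post-emerge at 2-3 leaf stage with 0.25% v/v non-ionic surfactant. Phytotoxicity was rated 14 days later on a 0 (no damage) to 100 (complete death) scale.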

[2] = system: upland rice (Oryza sp., var. Tebonnet, RICE); assay: Post-emerge test, crop safety; details: rating scale 0-100 (0 no damage, 100 complete death), 14 days after application
How it was run: (§1)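 Sandy loam pots; pre-emerge: sown 1 d pre-spray, surface-watered after, then bottom-watered. Post-emerge: sown 8–21 d before, 2–3 leaf stage, + 0.25% v/v NIS, bottom-watered. Acetone, 187 l/ha track spray, 15–1000 g ai/ha. 0–100 injury score, day 14.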

[3] = system: field corn (Zea mays L., var. Dekalb 535, CORN); assay: Post-emerge test, crop safety; details: rating scale 0-100 (0 no damage, 100 complete death), 14 days after application
How it was run: as §1

[4] = system: upland rice (Oryza sp., var. Tebonnet, RICE); assay: Pre-emerge test, crop safety; details: for Pre-emerge phytotoxicity rating, crop damage RICE: rating scale 0-100, 14 days after application; for phytotoxicity rating RICE: pre-emerge, 14 days after application, rating scale 0-100
How it was run: (§2)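 Applied at 15–1000 g ai/ha from acetone in 187 l/ha spray volume. Post-emergence applications included 0.25% v/v non-ionic surfactant and reached plants sown 8–21 days before. Pre-emergence applications were incorporated by surface watering. Efficacy or crop damage was rated on a 0–100 scale after 14 days.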

[5] = system: field corn (Zea mays L., var. Dekalb 535, CORN); assay: Pre-emerge test, crop safety; details: for Pre-emerge phytotoxicity rating, crop damage CORN: rating scale 0-100, 14 days after application; for phytotoxicity rating CORN: pre-emerge, 14 days after application, rating scale 0-100
How it was run: as §2

[6] = system: ivyleaf morningglory (Ipomoea hederacea, IPOHE); assay: Post-emerge test, greenhouse herbicide activity screening; details: rating scale 0-100 (0 no damage, 100 complete death), 14 days after application
How it was run: (§3)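 Compounds in acetone were track-sprayed at 15–1000 g ai/ha: pre-emergence onto soil sown the previous day, then top-watered to incorporate and later bottom-watered; post-emergence onto 2–3 leaf plants with 0.25% v/v surfactant, bottom-watered only. Ratings on a 0–100 phytotoxicity scale were taken at day 14.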

[7] = system: large crabgrass (Digitaria sanguinalis, DIGSA); assay: as above; details: rating scale 0-100 (0 no damage, 100 complete death), 14 days after application
How it was run: as §3

[8] = system: lambsquarters (Chenopodium album, CHEAL); assay: as above; details: rating scale 0-100 (0 no damage, 100 complete death), 14 days after application
How it was run: as §3

[9] = system: johnsongrass (Sorghum halepense, SORHA); assay: as above; details: rating scale 0-100 (0 no damage, 100 complete death), 14 days after application
How it was run: as §3

[10] = system: redroot pigweed (Amaranthus retroflexus, AMARE); assay: as above; details: rating scale 0-100 (0 no damage, 100 complete death), 14 days after application
How it was run: as §3

[11] = system: sicklepod (Cassia obtusifolia, CASOB); assay: as above; details: rating scale 0-100 (0 no damage, 100 complete death), 14 days after application
How it was run: as §3

[12] = system: velvetleaf (Abutilon theophrasti, ABUTH); assay: as above; details: rating scale 0-100 (0 no damage, 100 complete death), 14 days after application
How it was run: as §3

[13] = system: green foxtail (Setaria viridis, SETVI); assay: as above; details: rating scale 0-100 (0 no damage, 100 complete death), 14 days after application
How it was run: as §3

[14] = system: barnyardgrass (Echinochloa crus-galli, ECHCG); assay: as above; details: rating scale 0-100 (0 no damage, 100 complete death), 14 days after application
How it was run: as §3

[15] = system: ivyleaf morningglory (Ipomoea hederacea, IPOHE); assay: Pre-emerge test, greenhouse herbicide activity screening; details: for Pre-emerge herbicidal activity, phytotoxicity rating IPOHE: rating scale 0-100, 14 days after application; for phytotoxicity rating IPOHE: pre-emerge, 14 days after application, rating scale 0-100
How it was run: as §1

[16] = system: large crabgrass (Digitaria sanguinalis, DIGSA); assay: as above; details: for Pre-emerge herbicidal activity, phytotoxicity rating DIGSA: rating scale 0-100, 14 days after application; for phytotoxicity rating DIGSA: pre-emerge, 14 days after application, rating scale 0-100
How it was run: as §1

[17] = system: lambsquarters (Chenopodium album, CHEAL); assay: as above; details: for Pre-emerge herbicidal activity, phytotoxicity rating CHEAL: rating scale 0-100, 14 days after application; for phytotoxicity rating CHEAL: pre-emerge, 14 days after application, rating scale 0-100
How it was run: as §1

[18] = system: johnsongrass (Sorghum halepense, SORHA); assay: as above; details: for Pre-emerge herbicidal activity, phytotoxicity rating SORHA: rating scale 0-100, 14 days after application; for phytotoxicity rating SORHA: pre-emerge, 14 days after application, rating scale 0-100
How it was run: as §1

[19] = system: sicklepod (Cassia obtusifolia, CASOB); assay: as above; details: for Pre-emerge herbicidal activity, phytotoxicity rating CASOB: rating scale 0-100, 14 days after application; for phytotoxicity rating CASOB: pre-emerge, 14 days after application, rating scale 0-100
How it was run: as §1

[20] = system: velvetleaf (Abutilon theophrasti, ABUTH); assay: as above; details: for Pre-emerge herbicidal activity, phytotoxicity rating ABUTH: rating scale 0-100, 14 days after application; for phytotoxicity rating ABUTH: pre-emerge, 14 days after application, rating scale 0-100
How it was run: as §1

[21] = system: green foxtail (Setaria viridis, SETVI); assay: as above; details: for Pre-emerge herbicidal activity, phytotoxicity rating SETVI: rating scale 0-100, 14 days after application; for phytotoxicity rating SETVI: pre-emerge, 14 days after application, rating scale 0-100
How it was run: as §1

[22] = system: barnyardgrass (Echinochloa crus-galli, ECHCG); assay: as above; details: for Pre-emerge herbicidal activity, phytotoxicity rating ECHCG: rating scale 0-100, 14 days after application; for phytotoxicity rating ECHCG: pre-emerge, 14 days after application, rating scale 0-100
How it was run: as §1

COc1c(Cl)cc(F)c(-n2c(=O)cc(C(F)(F)F)n(C)c2=O)c1CC(C)(Cl)C(=O)OCc1ccccc1 (stereo not shown) [14-41]
80: Pre-emerge herbicidal activity, phytotoxicity rating ECHCG ([22]; 250 g ai/ha)
30: Post-emerge Herbicidal Activity, phytotoxicity rating IPOHE ([6]; Rate 63 g ai/ha) | Pre-emerge herbicidal activity, phytotoxicity rating SETVI ([21]; 63 g ai/ha)
95: Post-emerge phytotoxicity rating RICE (crop damage) ([2]; Rate 250 g ai/ha)
70: Post-emerge Herbicidal Activity, phytotoxicity rating SORHA ([9]; Rate 250 g ai/ha)
40: Post-emerge Herbicidal Activity, phytotoxicity rating SORHA ([9]; Rate 63 g ai/ha) | Pre-emerge herbicidal activity, phytotoxicity rating IPOHE ([15]; 250 g ai/ha)
20: Post-emerge phytotoxicity rating RICE (crop damage) ([2]; Rate 63 g ai/ha)
50: Pre-emerge phytotoxicity rating, crop damage RICE ([4]; 250 g ai/ha) | Post-emerge Herbicidal Activity, phytotoxicity rating IPOHE ([6]; Rate 250 g ai/ha) | Pre-emerge herbicidal activity, phytotoxicity rating DIGSA ([16]; 63 g ai/ha)
0: Pre-emerge phytotoxicity rating, crop damage RICE ([4]; 63 g ai/ha) | Pre-emerge phytotoxicity rating, crop damage CORN ([5]; 63 g ai/ha) | Pre-emerge phytotoxicity rating, crop damage CORN ([5]; 250 g ai/ha) | Post-emerge Herbicidal Activity, phytotoxicity rating CASOB ([11]; Rate 63 g ai/ha) | Post-emerge Herbicidal Activity, phytotoxicity rating CASOB ([11]; Rate 250 g ai/ha) | Pre-emerge herbicidal activity, phytotoxicity rating IPOHE ([15]; 63 g ai/ha) | Pre-emerge herbicidal activity, phytotoxicity rating SORHA ([18]; 63 g ai/ha) | Pre-emerge herbicidal activity, phytotoxicity rating SORHA ([18]; 250 g ai/ha) | Pre-emerge herbicidal activity, phytotoxicity rating CASOB ([19]; 63 g ai/ha) | Pre-emerge herbicidal activity, phytotoxicity rating CASOB ([19]; 250 g ai/ha) | Pre-emerge herbicidal activity, phytotoxicity rating ECHCG ([22]; 63 g ai/ha)
100: Pre-emerge herbicidal activity, phytotoxicity rating AMARE ([1]; 63 g ai/ha) | Pre-emerge herbicidal activity, phytotoxicity rating AMARE ([1]; 250 g ai/ha) | Post-emerge phytotoxicity rating CORN (crop damage) ([3]; Rate 63 g ai/ha) | Post-emerge phytotoxicity rating CORN (crop damage) ([3]; Rate 250 g ai/ha) | Post-emerge Herbicidal Activity, phytotoxicity rating DIGSA ([7]; Rate 63 g ai/ha) | Post-emerge Herbicidal Activity, phytotoxicity rating DIGSA ([7]; Rate 250 g ai/ha) | Post-emerge Herbicidal Activity, phytotoxicity rating CHEAL ([8]; Rate 63 g ai/ha) | Post-emerge Herbicidal Activity, phytotoxicity rating CHEAL ([8]; Rate 250 g ai/ha) | Post-emerge Herbicidal Activity, phytotoxicity rating AMARE ([10]; Rate 63 g ai/ha) | Post-emerge Herbicidal Activity, phytotoxicity rating AMARE ([10]; Rate 250 g ai/ha) | Post-emerge Herbicidal Activity, phytotoxicity rating ABUTH ([12]; Rate 63 g ai/ha) | Post-emerge Herbicidal Activity, phytotoxicity rating ABUTH ([12]; Rate 250 g ai/ha) | Post-emerge Herbicidal Activity, phytotoxicity rating SETVI ([13]; Rate 250 g ai/ha) | Post-emerge Herbicidal Activity, phytotoxicity rating ECHCG ([14]; Rate 63 g ai/ha) | Post-emerge Herbicidal Activity, phytotoxicity rating ECHCG ([14]; Rate 250 g ai/ha) | Pre-emerge herbicidal activity, phytotoxicity rating DIGSA ([16]; 250 g ai/ha) | Pre-emerge herbicidal activity, phytotoxicity rating CHEAL ([17]; 63 g ai/ha) | Pre-emerge herbicidal activity, phytotoxicity rating CHEAL ([17]; 250 g ai/ha) | Pre-emerge herbicidal activity, phytotoxicity rating ABUTH ([20]; 250 g ai/ha) | Pre-emerge herbicidal activity, phytotoxicity rating SETVI ([21]; 250 g ai/ha)
90: Post-emerge Herbicidal Activity, phytotoxicity rating SETVI ([13]; Rate 63 g ai/ha) | Pre-emerge herbicidal activity, phytotoxicity rating ABUTH ([20]; 63 g ai/ha)

CCOC(=O)C(Cl)(CC(=O)OC)Cc1c(OC)c(Cl)cc(F)c1-n1c(=O)cc(C(F)(F)F)n(C)c1=O (stereo not shown) [14-50]
100: phytotoxicity rating AMARE ([1]; 63 g ai/ha) | phytotoxicity rating AMARE ([1]; 250 g ai/ha) | Post-emerge Herbicidal Activity, phytotoxicity rating CHEAL ([8]; Rate 250 g ai/ha) | Post-emerge Herbicidal Activity, phytotoxicity rating AMARE ([10]; Rate 63 g ai/ha) | Post-emerge Herbicidal Activity, phytotoxicity rating AMARE ([10]; Rate 250 g ai/ha) | Post-emerge Herbicidal Activity, phytotoxicity rating CASOB ([11]; Rate 250 g ai/ha) | phytotoxicity rating CHEAL ([17]; 63 g ai/ha) | phytotoxicity rating CHEAL ([17]; 250 g ai/ha)
40: phytotoxicity rating DIGSA ([16]; 250 g ai/ha)
70: phytotoxicity rating IPOHE ([15]; 250 g ai/ha)
90: phytotoxicity rating CORN ([5]; 250 g ai/ha) | Post-emerge Herbicidal Activity, phytotoxicity rating CASOB ([11]; Rate 63 g ai/ha)
0: phytotoxicity rating RICE ([4]; 63 g ai/ha) | phytotoxicity rating RICE ([4]; 250 g ai/ha) | Post-emerge Herbicidal Activity, phytotoxicity rating IPOHE ([6]; Rate 63 g ai/ha) | Post-emerge Herbicidal Activity, phytotoxicity rating IPOHE ([6]; Rate 250 g ai/ha) | Post-emerge Herbicidal Activity, phytotoxicity rating DIGSA ([7]; Rate 63 g ai/ha) | Post-emerge Herbicidal Activity, phytotoxicity rating SORHA ([9]; Rate 63 g ai/ha) | Post-emerge Herbicidal Activity, phytotoxicity rating SORHA ([9]; Rate 250 g ai/ha) | Post-emerge Herbicidal Activity, phytotoxicity rating SETVI ([13]; Rate 63 g ai/ha) | Post-emerge Herbicidal Activity, phytotoxicity rating SETVI ([13]; Rate 250 g ai/ha) | Post-emerge Herbicidal Activity, phytotoxicity rating ECHCG ([14]; Rate 63 g ai/ha) | Post-emerge Herbicidal Activity, phytotoxicity rating ECHCG ([14]; Rate 250 g ai/ha) | phytotoxicity rating DIGSA ([16]; 63 g ai/ha) | phytotoxicity rating CASOB ([19]; 63 g ai/ha) | phytotoxicity rating ABUTH ([20]; 63 g ai/ha) | phytotoxicity rating SETVI ([21]; 63 g ai/ha) | phytotoxicity rating ECHCG ([22]; 63 g ai/ha)
10: Post-emerge phytotoxicity rating CORN (crop damage) ([3]; Rate 63 g ai/ha) | phytotoxicity rating CORN ([5]; 63 g ai/ha) | phytotoxicity rating IPOHE ([15]; 63 g ai/ha)
50: Post-emerge phytotoxicity rating RICE (crop damage) ([2]; Rate 250 g ai/ha) | Post-emerge Herbicidal Activity, phytotoxicity rating DIGSA ([7]; Rate 250 g ai/ha) | Post-emerge Herbicidal Activity, phytotoxicity rating CHEAL ([8]; Rate 63 g ai/ha) | Post-emerge Herbicidal Activity, phytotoxicity rating ABUTH ([12]; Rate 250 g ai/ha) | phytotoxicity rating SORHA ([18]; 63 g ai/ha) | phytotoxicity rating ABUTH ([20]; 250 g ai/ha) | phytotoxicity rating SETVI ([21]; 250 g ai/ha)
30: Post-emerge phytotoxicity rating RICE (crop damage) ([2]; Rate 63 g ai/ha) | Post-emerge phytotoxicity rating CORN (crop damage) ([3]; Rate 250 g ai/ha) | Post-emerge Herbicidal Activity, phytotoxicity rating ABUTH ([12]; Rate 63 g ai/ha) | phytotoxicity rating CASOB ([19]; 250 g ai/ha) | phytotoxicity rating ECHCG ([22]; 250 g ai/ha)
95: phytotoxicity rating SORHA ([18]; 250 g ai/ha)
